Test results taken from US7932384B2, “Reverse-turn mimetics and method relating thereto” (Choongwae Pharma Corporation, priority 2001, dated 2011).

Legend:
[1] = tested on: TCF/β-catenin reporter gene transcription; assay: TOPFLASH luciferase assay in differentiated PC-12 PS-1/L286V cells; assay type: cell-based, Rat; settings: PS-1/L286V mutant PC-12 cells, 10 μM plus NGF
Experimental: Differentiated PC-12/L286V cells were treated with increasing concentrations of this compound for 4 hours. Transfection was then initiated after this treatment period.
Transfection. PC-12 cells were cultured and differentiated on 60-mm dishes. At the end of the 10-day differentiation period, cells were transfected with 2 μg reporter constructs, TOPFLASH and FOPFLASH, per 60-mm dish. Transfections were performed using Superfect (Qiagen) according to manufacturer's instructions.
Luciferase Assays. Cells were lysed, 6 hours after transfections, in 100 μl of Cell Culture Lysis Reagent (Promega, Madison, Wis.), and scraped into microcentrifuge tubes. Tubes were then centrifuged briefly (about 10 seconds) at 12000 rpm to pellet cell debris. Luciferase activity was measured on 20 μl of cell lysate and 100 μl substrate from the Luciferase Assay System (Promega). Luciferase activity was measure using Packard LumiCount. (Hewlett Packard). Quantitation of luciferase was performed in triplicates, and repeated in at least three independent experiments.

[2] = tested on: Ephrin B2 (EphB2) receptor; assay: EphB2 receptor expression (immunofluorescence and RT-PCR) in PC-12 PS-1/L286V cells; assay type: cell-based, Rat; settings: PS-1/L286V mutant PC-12 cells, 10 μM
Experimental: Immunofluorescence. Cells were plated at a density of 10,000 cells/cm^2 on sterile coated 22×22 mm coverslips in a 6-well culture plate. Differentiation was initiated, as previously described, for 10 days. The differentiated cells were then fixed in methanol for 15 minutes at −20° C. This is followed by a 15 minutes incubation with PBS+0.1% Triton X-100. The coverslips were incubated with antibodies raised against Ephrin B2 Receptor (Santa Cruz Biotechnology) and Gap-43 (Novus Biologicals) for 40 minutes at 37° C. After a series of washes with PBS-Triton X-100, secondary antibody conjugated to FITC (Jackson ImmunoResearch, Westgrove, Pa.) was applied. All slides images were acquired using a Nikon PCM2000 Laser Scanning Confocal Microscope mounted on a Nikon Eclipse E600 upright microscope (Nikon, Melville, N.Y.).
RT-PCR. To analyze the mRNA levels for Ephrin B2 (EphB2) receptor, total RNA was isolated using Trizol (Invitrogen-GIBCO-BRL, Baltimore, Md.) from differentiated cells. 2 μg RNA was reverse transcribed in a total volume of 20 μl with random hexamer (50 ng), and using the Superscript II reverse transcription system (Invitrogen-GIBCO-BRL), according to manufacturer's guidelines. PCR was carried out in a 50 μl volume containing 5 μl cDNA, 100 pmol primers, 100 μM dNTPs, 1×Taq buffer and 1.5 mM MgCl2. […]

HCT116 cells = assay: Flow cytometric analysis (FACS) of cell cycle, HCT116; assay type: cell-based; settings: HCT116, 25 μM, 24 hours
Experimental: For FACS analysis, approx. 5×10^6 cells from Compound D-treated or vehicle-treated were fixed with 70% chilled ethanol and stored at −20° C. for at least 30 minutes. The cells were washed once with 1×PBS and incubated with propidium iodine (PI) solution (85 μg/ml propidium iodine, 0.1% Nonidet P-40, 10 mg/ml RNAse) for 30 minutes at room temperature. 10,000 stained cells for each sample were acquired using Beckman Coulter EPICS XL-MCL Flow Cytometry and the percentage of cells in different phase of the cell cycle was determined by Expo32 ADC software (Coulter Corporation, Miami, Fla., 33196).
It has been shown that inhibition of the expression of the cyclin D1 gene causes arrest at the G1/S-phase of the cell cycle (Shintani et al., “Infrequent alternations of RB pathway (Rb-p16INK4A-cyclin D1) in adenoid cystic carcinoma of salivary glands,” Anticancer Res. 20:2169-75 (2000)). […] The cells were subsequently stained with propidium iodide (PI) and analyzed for DNA content by FACS cytofluorometry.

SW480 cells = assay: Soft agar colony formation assay; assay type: cell-based; settings: SW480, 0.25-5 μM
Experimental: The soft agar colony formation assay was conducted with SW480 cells by some modification of the procedure previously described (Moody et al., “A vasoactive intestinal peptide antagonist inhibits non-small cell lung cancer growth,” Proc. Natl. Acad. Sci. USA. 90:4345-49 (1993)).
Each well (35 mm) of a 6-well plate (Nalge Nunc International, Roskide, Denmark) was coated with 1 ml of 0.8% bottom agar in DMEM medium containing 10% fetal bovine serum. After it was solidified, 1 ml of DMEM medium containing 0.4% top agar, 10% fetal bovine serum, compound doubly concentrated, and 5,000 single viable cells was added to each well. The cultures were incubated at 37° C. in humidified 5% CO2 incubator. Colonies in soft agar were monitored daily and photographed after incubation for 8 days. Colonies>60 μm in diameter were counted.

surviving promoter [3] = assay: Survivin promoter luciferase reporter in wild type, CBP+/−, p300+/− 3T3 cells; assay type: cell-based; settings: with or without Wnt1
Text: A plasmid containing luciferase under the control of surviving promoter was constructed and transfected into wild type, CBP+/−, or p300+/−3T3 cells.

survivin promoter = assay: Survivin luciferase reporter in SW480 cells; assay type: cell-based; settings: SW480 cells, various concentrations
Ubiquitin = assay: Real time RT-PCR gene expression, Ubiquitin; assay type: cell-based; settings: 25 μM, 24 hours; <0.5 significant decrease, >1.5 significant increase
Experimental: (§1) Real time reverse transcription-PCR analysis was performed according to the protocol provided with the SYBR Green PCR Master Mix Kit (Perkin Elmer Biosystems, Shelton, ST). […] The primers used for the RT-PCR reactions were [NT] and [NT].

survivin = assay: Real time RT-PCR gene expression, Survivin; assay type: cell-based; settings: 25 μM, 24 hours; <0.5 significant decrease, >1.5 significant increase
Experimental: as §1

PCNA = assay: Real time RT-PCR gene expression, PCNA; assay type: cell-based; settings: 25 μM, 24 hours; <0.5 significant decrease, >1.5 significant increase
Experimental: as §1

Antigen KI-67 = assay: Real time RT-PCR gene expression, Antigen KI-67; assay type: cell-based; settings: 25 μM, 24 hours; <0.5 significant decrease, >1.5 significant increase
Experimental: as §1

MIC-1 = assay: Real time RT-PCR gene expression, MIC-1; assay type: cell-based; settings: 25 μM, 24 hours; <0.5 significant decrease, >1.5 significant increase
Experimental: as §1

surviving promoter [4] = assay: ChIP assay on SW480 cells (survivin promoter occupancy); assay type: cell-based; settings: SW480, 25 μM, 18 hours
surviving protein = assay: Survivin immunofluorescence microscopy in SW480 cells; assay type: cell-based
caspase 3 = assay: Caspase 3 activity in cultured tumor cells; assay type: cell-based; settings: 2.5 μM or 5.0 μM
cultured tumor cells = assay: FACS analysis of cells in G0, cultured tumor cells; assay type: cell-based; settings: 5 μM

Ratio (Treated/DMSO Control) MIC-1 (MIC-1): 7.0
Structure (SMILES): O=C1[C@H](Cc2ccc(O)cc2)N2C(=O)CCN(C(=O)NCc3ccccc3)[C@H]2CN1Cc1cccc2ccccc12 [Compound D]
TCF/β-catenin reporter gene transcription [1]: decreased TCF/β-catenin reporter gene transcription
EphB2 message (RT-PCR) [2]: increased EphB2 message
cell cycle distribution (FACS, PI) (HCT116 cells): increased accumulation at G1/S-phase of the cell cycle
number of colonies formed in soft agar (SW480 cells): dose dependent decrease in the number of colonies formed
survivin gene expression (promoter luciferase) (surviving promoter [3]): reduces expression of the surviving gene
survivin expression (luciferase reporter) (survivin promoter): inhibit expression of surviving in SW480 cells
Ratio (Treated/DMSO Control) Ubiquitin (Ubiquitin): 0.98
Ratio (Treated/DMSO Control) Survivin (survivin): 0.30
Ratio (Treated/DMSO Control) PCNA (PCNA): 0.33
Ratio (Treated/DMSO Control) Antigen KI-67 (Antigen KI-67): 0.45
association of CBP, β-catenin, Tcf4 and acetylated histone with the survivin promoter (ChIP) (surviving promoter [4]): decreases the association of all these proteins with the surviving promoter
survivin protein (immunofluorescence microscopy) (surviving protein): little or no surviving protein was detected
caspase 3 activity (caspase 3): activated the caspase 3 activity
number of cells in G0 (FACS) (cultured tumor cells): increase the number of cells in G0
